Consider two molecules from patent EP3644968B1, “LEVOCLOPERASTINE FENDIZOATE SUSPENSION HAVING ENHANCED DISSOLUTION AND RESUSPENDABILITY” (Ilko Ilaç Sanayi Ve Ticaret Anonim Sirketi, priority 2017, dated 2019).

The subject of one data set is cough. The conditions noted are these: cited from earlier work.
The test system of data set [1] is cough caused by tracheal mechanical stimulus. The conditions noted are these: guinea pig, relative to codeine; cited from earlier work.
A short description of data set [2]: particle size distribution by laser diffraction (Malvern Mastersizer-2000, dry dispersion). The data set is classed as physicochemical. The conditions noted are these: volume particle size distribution of the drug substance used. On the procedure: Particle size is determined by laser light scattering using a particle size analyzer, such as the proprietary Mastersizer™ apparatus in a dry dispersion system available from Malvern Instruments Ltd. (Malvern Mastersizer-2000, single narrow mode). Laser diffraction enables to measure particle size distributions by measuring the angular variation by scattering light intensity as a laser beam passes through a dispersed particulate sample. Large particles scatter light at small angles relative to the laser beam and small particles scatter light at large angles. The angular scattering intensity data is then analyzed to calculate the size of the particles responsible for creating the scattering pattern, using the Mie theory of light scattering. The particle size is reported as a volume equivalent sphere diameter.
A common approach to define the distribution width is to cite three values on the x-axis as D10, D50 and D90. The D50, named as median, has been defined as the diameter where 50 percent of the distribution lies below this value. Similarly, D90 has been defined as 90 percent of the distribution lies below, and 10 percent of the population lies below the D10.

Consider `Clc1ccc(C(OCCN2CCCCC2)c2ccccc2)cc1` (racemic) [cloperastine], for which the “duration of action of a single dose” value in the data set on cough (single dose) was 3 to 4 h. Further, in the data set with cough (therapeutic dose range 10-20 mg three times daily for adults, oral), the “initial response after oral administration” value was 20 to 30 min. Moreover, the “efficacy against cough, times greater than codeine” value in data set [1] is given as 1.9 times.
For the molecule `Clc1ccc([C@@H](OCCN2CCCCC2)c2ccccc2)cc1.O=C(O)c1ccccc1C(=O)c1ccc(O)c(-c2ccccc2)c1` [Levocloperastine fendizoate], in data set [2], the “d(0.1)” value was “d(0.1): 3.031 µm”, the “d(0.5)” value was “d(0.5): 13.126 µm” and the “d(0.9)” value is “d(0.9): 39.322 µm”.
